Data as given in patent publication US20230285570A1, “THERAPEUTICALLY USEFUL CURE-PRO MOLECULES FOR E3 LIGASE MEDIATED DEGRADATION OF PROTEINS, AND METHODS OF MAKING AND USING THEM” (CORNELL UNIVERSITY, priority 2020, published 2023).
“Also recorded” adds a separate entry of the source.

Tests used:
Type in all cases: cell-based
BRD4 [1] = biological target: T1, BRD4 (Homo sapiens, UniProt O60885); experiment: CURE-PRO-mediated BRD4 degradation in MCF7 cells, Western blot; parameters: endogenous in cells; conditions: 1:1 with VHL ligand 8305, MCF7, 24 h, 100 nM-10 μM
Method: (§1) Namalwa, Ramosm HeLa, MCF7, or HT29 HCT116 cells (2.5-3×10^6) were treated for 24 hours with the indicated compounds solubilized in DMSO. The cells were washed in ice-cold PBS and were then lysed in RIPA lysis buffer (150 mM NaCl, 5 mM EDTA, 1% NP-40, 0.5% sodium deoxycholate, 0.1% SDS, 50 mM Tris, pH 8.0.) with Roche protease inhibitor complete cocktail and phosphatase inhibitors (10 mM sodium fluoride, 10 mM sodium pyrophosphate, 1 mM sodium orthovanadate and 20 mM β-glycerophosphate). The total protein concentrations were determined by Bradford Protein Assay (Pierce) and 10-20 μg of protein was loaded onto 4-15% Tris-Glycine gradient gels (Biorad). After standard gel electrophoresis, the separated proteins were transferred to PVDF membrane by wet transfer. The immunoblots were then blocked for 1 hour in 5% skim milk in TBST or 5% BSA in TBST, according to manufacturer's instructions, before an overnight incubation at 4° C. with indicated antibodies and membranes. Membranes were then incubated with the appropriate horseradish peroxidase-conjugated secondary antibodies (1:5,000 dilution) for 1 h at room temperature and the bands were visualized using the Clarity Max Western ECL Substrate (Biorad) and the ChemiDoc Imaging System (Biorad). Signal was detected with ECL Western Blotting Substrate (Pierce) and X-ray film processed with a Konica SRX-101 X-ray film processor or captured by Bio-Rad's Chemidoc Imaging system.
MCF7 cells (3×10^6) were treated for 24 h with the compounds solubilized in DMSO. Compounds were added at 100 nM-10 μM. Standardized protein samples were electrophoresed and imaged as described in the Immunoblotting section above. FIG. 69 depicts the CURE-PRO-mediated BRD4 degradation for the BRD-E9 monomer and VHL ligands 8305 combined in a 1:1 ratio, and FIG. 70 depicts the CURE-PRO-mediated BRD4 degradation for the BRD-E20 monomer and 8305.
MCF7 cells (3×10^6) were treated for 24 h with the compounds solubilized in DMSO. Compounds were added at 1 μM-10 μM. Standardized protein samples were electrophoresed and imaged as described in the Immunoblotting section above. FIG. 71 depicts the CURE-PRO-mediated BRD4 degradation for the BRD-E50 monomer and VHL ligands 8305 and 8304 combined in a 1:1 ratio.

MV-4-11 cells = experiment: CellTiter-Glo cell viability, MV-4-11 cells; conditions: cotreated 1:1 with each of CRBN ligands 8046, 8047 and 8066, MV-4-11, 72 h, 10 nM-100 μM
Procedure, shortened: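 Viability by CellTiter-Glo luminescence. One protocol: 5×10^4 MV-4-11 cells, 24 h, compounds at 1 nM-100 μM each; other: 1×10^4 cells, 72 h, 10 nM-100 μM each. BRD ligands combined 1:1 with CRBN ligands; dose-response curves fitted.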

BRD4 [2] = biological target: T1, BRD4; experiment: CURE-PRO-mediated BRD4 degradation in MCF7 cells, WES (ProteinSimple); parameters: endogenous in cells
Method: WES Simple analysis was performed on WES system (ProteinSimple-Biotechne) according to the manufacturer's instructions. Total protein concentrations of cell lysates were determined by the Pierce BCA kit (Thermo Fisher). 3 μL of 0.3 μg/μL of the protein lysate was loaded onto a 12- to 230-kDa WES assay plate (ProteinSimple) where 300 nL sample was withdrawn through a capillary, subjected to electrophoretic separation of proteins by size, and followed by the simultaneous, HRP-based detection of proteins using the Anti-Rabbit Detection Module (Proteinsimple: #DM-001). The electropherograms were checked then the automatic peak detection was manually corrected if it was required.
MCF7 cells (3×10^6) were treated for 4-24 hours continually (FIG. 72), or treated for 4 h, washed and incubated for a further 4-24 h with the compounds solubilized in DMSO. Compounds were added at 10 μM each. Cells were washed, lysed, and clarified by centrifugation. The total protein concentration was quantified by the BCA method (ThermoFisher Sciences). Standardized protein samples were electrophoresed and imaged as described in the WES Proteinsimple section above. FIG. 69 depicts the CURE-PRO-mediated BRD4 degradation for the BRD-E50 monomer, and VHL ligand, 8305.
MCF7 cells (3×10^6) were treated for 24 hours with the compounds solubilized in DMSO. CURE-PRO monomers were added at 10 μM each and the proteasomal inhibitors at 1 μM. Standardized protein samples were electrophoresed and imaged as described in the WES Proteinsimple section above. FIGS. 73 and 75 depicts the dependence of the proteasome for CURE-PRO-mediated BRD4 degradation.
MCF7 cells (3×10^6) were treated for 24 hours with the compounds solubilized in DMSO. CURE-PRO monomers were added at 10 μM. FIG. 74 depicts the CURE-PRO-mediated BRD4 degradation for the BRD-E50 monomer, and VHL ligand, 8305 combined in a 1:1 ratio after 24 h.

BRD3 = biological target: T2, BRD3 (Homo sapiens, UniProt Q15059); experiment: BRD protein family degradation in HCT116 cells, Western blot: BRD3; conditions: 1:1 with MDM2 ligands 8310 and 8312 (each), HCT116, 24 h, 100 nM-10 μM
T2 construct: endogenous in cells; host or cells: HCT116
Method: as §1, with “Membranes were then incubated with the appropriate horseradish peroxidase-conjugated secondary antibodies (1:5,000 dilution) for 1 h at room temperature and the bands were visualized using the Clarity Max Western ECL Substrate (Biorad) and the ChemiDoc Imaging System (Biorad).” left out, “system. […]” for “system.”

BRD2 = biological target: T3, BRD2 (Homo sapiens, UniProt P25440); experiment: BRD protein family degradation in HCT116 cells, Western blot: BRD2; conditions: 1:1 with MDM2 ligands 8310 and 8312 (each), HCT116, 24 h, 100 nM-10 μM
T3 construct: endogenous in cells; host or cells: HCT116
Method: as §1, with “Membranes were then incubated with the appropriate horseradish peroxidase-conjugated secondary antibodies (1:5,000 dilution) for 1 h at room temperature and the bands were visualized using the Clarity Max Western ECL Substrate (Biorad) and the ChemiDoc Imaging System (Biorad).” left out, “system. […]” for “system.”

T2 sequence (Q15059 whole entry): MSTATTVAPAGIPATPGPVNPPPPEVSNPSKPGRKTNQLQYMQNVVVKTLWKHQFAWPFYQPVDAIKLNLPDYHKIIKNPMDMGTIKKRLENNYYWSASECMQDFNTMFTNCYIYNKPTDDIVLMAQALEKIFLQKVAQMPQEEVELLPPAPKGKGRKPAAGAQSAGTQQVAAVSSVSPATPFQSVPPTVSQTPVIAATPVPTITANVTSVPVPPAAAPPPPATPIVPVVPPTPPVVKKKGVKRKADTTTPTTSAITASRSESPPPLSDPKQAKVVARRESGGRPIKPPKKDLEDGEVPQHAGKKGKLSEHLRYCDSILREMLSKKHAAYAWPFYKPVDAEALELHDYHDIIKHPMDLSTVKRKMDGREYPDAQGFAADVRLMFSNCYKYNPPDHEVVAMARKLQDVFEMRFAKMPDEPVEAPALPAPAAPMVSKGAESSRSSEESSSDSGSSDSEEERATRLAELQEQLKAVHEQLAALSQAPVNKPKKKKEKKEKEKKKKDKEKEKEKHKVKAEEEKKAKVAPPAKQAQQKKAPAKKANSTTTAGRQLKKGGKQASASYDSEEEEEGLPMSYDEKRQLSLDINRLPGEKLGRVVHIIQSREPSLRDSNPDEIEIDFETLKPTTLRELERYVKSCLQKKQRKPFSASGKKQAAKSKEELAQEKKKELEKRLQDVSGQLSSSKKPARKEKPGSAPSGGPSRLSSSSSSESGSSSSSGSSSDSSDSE
T3 sequence (P25440 whole entry): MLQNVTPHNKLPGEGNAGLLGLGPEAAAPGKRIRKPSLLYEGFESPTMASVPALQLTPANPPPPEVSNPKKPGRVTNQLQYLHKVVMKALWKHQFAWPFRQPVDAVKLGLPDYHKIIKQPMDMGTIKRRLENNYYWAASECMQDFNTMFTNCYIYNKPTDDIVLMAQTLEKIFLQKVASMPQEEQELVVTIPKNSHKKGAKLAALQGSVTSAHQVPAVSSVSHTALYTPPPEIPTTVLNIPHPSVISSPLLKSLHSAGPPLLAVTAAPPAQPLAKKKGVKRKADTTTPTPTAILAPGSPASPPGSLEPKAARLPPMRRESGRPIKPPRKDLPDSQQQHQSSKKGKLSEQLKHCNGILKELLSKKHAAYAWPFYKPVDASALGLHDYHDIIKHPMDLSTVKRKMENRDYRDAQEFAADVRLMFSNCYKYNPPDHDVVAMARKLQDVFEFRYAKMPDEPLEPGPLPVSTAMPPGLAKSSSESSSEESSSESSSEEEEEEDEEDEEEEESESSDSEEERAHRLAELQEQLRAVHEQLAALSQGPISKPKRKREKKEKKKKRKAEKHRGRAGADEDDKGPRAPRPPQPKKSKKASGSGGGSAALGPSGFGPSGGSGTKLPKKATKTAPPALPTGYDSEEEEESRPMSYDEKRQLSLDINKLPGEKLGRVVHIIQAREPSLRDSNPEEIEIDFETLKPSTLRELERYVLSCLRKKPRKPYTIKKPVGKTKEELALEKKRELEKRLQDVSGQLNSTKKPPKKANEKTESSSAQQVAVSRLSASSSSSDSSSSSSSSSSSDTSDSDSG

Row | SMILES | BRD4 degradation (BRD4 [1]) | loss of cellular viability (toxicity) versus monomers alone (MV-4-11 cells) | BRD4 degradation with proteasome inhibitors (BRD4 [2]; 1:1 with 8305 at 10 μM, pre-incubation with MG-132 and Carfilzomib 1 μM, MCF7) | BRD4 degradation (BRD4 [2]; 1:1 with VHL ligand 8305, MCF7, 10 μM each, 4-24 h) | BRD4 degradation (BRD4 [2]; co-incubated with VHL ligand 8304, MCF7, 10 μM each) | BRD3 degradation (BRD3) | BRD2 degradation (BRD2)
1 | CCNC(=O)C[C@@H]1N=C(c2ccc(Cl)cc2)c2cc(OCCCCC(=O)Nc3cccc(B(O)O)c3)ccc2-n2c(C)nnc21 [BRD-E20, (3-(5-(((4S)-6-(4-chlorophenyl)-4-(2-(ethylamino)-2-oxoethyl)-1-methyl-4H-benzo[f][1,2,4]triazolo[4,3-a][1,4]diazepin-8-yl)oxy)pentanamido)phenyl)boronic acid] | there is degradation of BRD4 | reduced viability; also recorded: increased toxicity | inhibited by the pre-incubation with MG-132 and Carfilzomib; also recorded: inhibited with the proteasome inhibitors, MG-132 and Carfilzomib | caused BRD4 degradation; also recorded: marked BRD4 degradation | failed to induce BRD4 degradation | – | –
2 | CCNC(=O)C[C@@H]1N=C(c2ccc(Cl)cc2)c2cc(OCCOCCNC(=O)c3cccc(O)c3O)ccc2-n2c(C)nnc21 [BRD-N39, N-(2-(2-(((4S)-6-(4-chlorophenyl)-4-(2-(ethylamino)-2-oxoethyl)-1-methyl-4H-benzo[f][1,2,4]triazolo[4,3-a][1,4]diazepin-8-yl)oxy)ethoxy)ethyl)-2,3-dihydroxybenzamide] | – | – | – | – | – | degradation of BRD3; also recorded: Degradation is evident | BRD2 to a lesser extent; also recorded: Degradation is evident
